The inhibition is the drop in the measured response relative to a control, in per cent. The melting point is the temperature, or range, at which the solid turns liquid.

The target of one series is T1, human PDE4B1 (Homo sapiens, UniProt Q07343).
T1 construct: host or cells: Sf9 cells
T1 sequence (Q07343 whole entry): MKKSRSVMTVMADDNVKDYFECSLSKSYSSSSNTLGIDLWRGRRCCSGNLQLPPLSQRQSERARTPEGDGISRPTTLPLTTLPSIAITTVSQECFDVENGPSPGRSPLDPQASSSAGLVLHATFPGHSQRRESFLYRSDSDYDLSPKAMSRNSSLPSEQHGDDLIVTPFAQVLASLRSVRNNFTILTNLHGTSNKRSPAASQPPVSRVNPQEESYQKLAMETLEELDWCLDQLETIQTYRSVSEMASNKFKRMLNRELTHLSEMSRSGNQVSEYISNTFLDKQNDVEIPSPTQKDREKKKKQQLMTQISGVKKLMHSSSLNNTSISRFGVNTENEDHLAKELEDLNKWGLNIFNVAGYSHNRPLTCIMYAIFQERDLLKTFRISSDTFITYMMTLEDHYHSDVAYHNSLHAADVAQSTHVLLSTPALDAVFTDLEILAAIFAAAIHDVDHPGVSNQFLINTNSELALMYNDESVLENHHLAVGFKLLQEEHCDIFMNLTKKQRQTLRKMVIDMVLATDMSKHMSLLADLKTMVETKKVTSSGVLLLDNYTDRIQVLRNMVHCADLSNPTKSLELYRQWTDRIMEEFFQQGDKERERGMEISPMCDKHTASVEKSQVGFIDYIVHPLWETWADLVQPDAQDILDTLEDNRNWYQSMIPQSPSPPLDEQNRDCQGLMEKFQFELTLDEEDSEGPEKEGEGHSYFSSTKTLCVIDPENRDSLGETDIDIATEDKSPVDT
As to the kind of experiment: cAMP HTRF assay to determine the activity of hPDE4B1. The following applies: test substrate concentration of 1 μM, read-out: Inhibition of PDE4B, Inhibition in %. Format: biochemical. On the procedure:
cAMP HTRF® Assay to Determine the Activity of hPDE4B1
The inhibiting effect of the compounds on the enzyme activity of human PDE4B1 was measured by the quantification of 5′-adenosine monophosphate (5′-AMP), which is formed from 3′,5′-cyclic adenosine monophosphate (cAMP). Human recombinant enzyme, expressed in Sf9 cells, and the HTRF (homogeneous time-resolved fluorescence) detection method were used in the assay.
The test compound or water (control) was mixed with the human recombinant PDE4B1 enzyme (4.8 U) in a buffer consisting of 44.4 mM tris-HCl, 5.28 mM MgCl2, 2.64 mM DTT and 0.044% Tween 20 (pH 7.8). After adding the cAMP enzyme substrate (final concentration 40 nM), the mixture was incubated for 30 minutes at room temperature. Then a fluorescence acceptor (Dye2 marked with cAMP), a fluorescence donor (anti-cAMP antibody marked with a europium cryptate) and the non-specific phosphodiesterase inhibitor IBMX (3-isobutyl-1-methylxanthine; final concentration 1 mM) were added. After 60 minutes the fluorescence transfer, which correlates with the amount of remaining cAMP, was measured with a microplate reader (Rubystar, BMG) at λex=337 nm, λem=620 nm and λem=665 nm. The enzyme activity was calculated from the quotient formed from the measured signal at 665 nm and that at 620 nm. The result was expressed as the percentage inhibition of enzyme activity of the control (without PDE4 inhibitor). The enzyme was omitted for measurement of the basal control. IC50 values (IC50=concentration causing a half-maximal inhibition of control specific activity) were derived from dose response measurements with eight different concentrations (n=2; N=1-3).
Literature: N. Saldou et al., Comparison of recombinant human PDE4 isoforms: interaction with substrate and inhibitors, Cell. Signal. Vol. 10, No. 6, 427-440, 1998
(Time-resolved FRET reads energy transfer from a long-lived donor to a nearby acceptor.)
As to `O=C(c1ccc2c(C3CC3)nn(-c3ncc(-c4ccccc4)cn3)c2c1)N1CCOCC1` [Compound No. 14, (3-Cyclopropyl-1-(5-phenylpyrimidin-2-yl)-1H-indazol-6-yl)(morpholino)-methanone], the inhibition at 1 µM came out at 92%. On the same count and under the same terms, with `O=C(c1cc2c(cn1)c(C1CC1)nn2-c1ncc(-c2ccccc2F)cn1)N1CCCCC1` [compound 42, (3-Cyclopropyl-1-(5-(2-fluorophenyl)pyrimidin-2-yl)-1H-pyrazolo[4,3-c]pyridin-6-yl)(piperidin-1-yl)methanone] the figure was 39%. On to `COCCCNC(=O)c1cc2c(cn1)c(C1CC1)nn2-c1ncc(-c2ccccc2F)cn1` [compound 43, 3-Cyclopropyl-1-(5-(2-fluorophenyl)pyrimidin-2-yl)-N-(3-methoxypropyl)-1H-pyrazolo[4,3-c]pyridine-6-carboxamide], for which the inhibition at 1 µM was determined as 44%.

With `CC1COCCN1C(=O)c1cc2c(cn1)c(C1CC1)nn2-c1ncc(-c2ccccc2F)cn1` (centres unmarked) [compound 44, (3-Cyclopropyl-1-(5-(2-fluorophenyl)pyrimidin-2-yl)-1H-pyrazolo[4,3-c]pyridin-6-yl)(3-methylmorpholino)methanone], the inhibition at 1 µM was 61%. As for `O=C(NC1CCOCC1)c1cc2c(cn1)c(C1CC1)nn2-c1ncc(-c2ccccc2F)cn1` [compound 45, 3-Cyclopropyl-1-(5-(2-fluorophenyl)pyrimidin-2-yl)-N-(tetrahydro-2H-pyran-4-yl)-1H-pyrazolo[4,3-c]pyridine-6-carboxamide], the inhibition at 1 µM worked out at 27%. Regarding `O=C(NCC1(O)CCC1)c1cc2c(cn1)c(C1CC1)nn2-c1ncc(-c2ccccc2F)cn1` [compound 46, 3-Cyclopropyl-1-(5-(2-fluorophenyl)pyrimidin-2-yl)-N-((1-hydroxycyclobutyl)methyl)-1H-pyrazolo[4,3-c]pyridine-6-carboxamide], the inhibition at 1 µM is 31%. Same read-out and setting: with `O=C(NCCn1cncn1)c1cc2c(cn1)c(C1CC1)nn2-c1ncc(-c2ccccc2F)cn1` [compound 47, N-(2-(1H-1,2,4-Triazol-1-yl)ethyl)-3-cyclopropyl-1-(5-(2-fluorophenyl)pyrimidin-2-yl)-1H-pyrazolo[4,3-c]pyridine-6-carboxamide] the figure was 67%; with `COC[C@@H]1CCCN1C(=O)c1cc2c(cn1)c(C1CC1)nn2-c1ncc(-c2ccccc2F)cn1` [compound 48, (S)-(3-Cyclopropyl-1-(5-(2-fluorophenyl)pyrimidin-2-yl)-1H-pyrazolo[4,3-c]pyridin-6-yl)(2-(methoxymethyl)pyrrolidin-1-yl)methanone], 43%; with `CC1COCC(C)N1C(=O)c1cc2c(cn1)c(C1CC1)nn2-c1ncc(-c2ccccc2F)cn1` (centres unmarked) [compound 49, (3-Cyclopropyl-1-(5-(2-fluorophenyl)pyrimidin-2-yl)-1H-pyrazolo[4,3-c]pyridin-6-yl)(3,5-dimethylmorpholino)methanone], 54%.

Another series deals with T1, human PDE4B1. As to the kind of experiment: TR-FRET assay using the LANCE Ultra cAMP kit to determine the activity of hPDE4B1. Format: biochemical. The settings on record: test substrate concentration of 10 μM, read-out: Inhibition of PDE4B, Inhibition in %. The text has this:
TR-FRET Assay Using the LANCE® Ultra cAMP Kit to Determine the Activity of hPDE4B1
The effects of the compounds on the activity of the human PDE4B1 was quantified by measuring the production of 5′AMP from cAMP using a human recombinant enzyme expressed in Sf9 cells and the LANCE® Ultra cAMP kit, a TR-FRET detection method from PerkinElmer. The human PDE4B1 enzyme was purchased from SignalChem Lifesciences (Catalog #P92-31BG, Lot #H296-2).
The test compound, reference compound or water (control) was mixed with the enzyme (0.96 U) in a reaction buffer containing 50 mM Tris-HCl, 50 mM MgCl2 and 5 mM DTT (pH 8.5). Thereafter, the reaction was initiated by addition of 500 nM cAMP (substrate) and the mixture was incubated for 30 minutes at room temperature. For control basal measurements, the enzyme was omitted from the reaction mixture. After 30 minutes, the reaction was stopped and diluted by a factor of 100 with the reaction buffer supplemented with 500 μM IBMX. The fluorescence donor (europium chelate-labeled cAMP) and the fluorescence acceptor (anti-cAMP antibody labeled with the ULight™ dye) were then added together with 500 μM IBMX to a 10 μl aliquot. After 60 minutes, the fluorescence transfer corresponding to the amount of residual cAMP was measured at λex=337 nm, λem=620 nm and λem=665 nm using a microplate reader (PHERAstar, BMG). The enzyme activity was determined by dividing the signal measured at 665 nm by that measured at 620 nm (ratio) multiplied by 10000. The results were expressed as percent inhibition of the control enzyme activity. IC50 values (IC50=concentration causing a half-maximal inhibition of control specific activity) were derived from dose response measurements with ten different concentrations (n=3; N=1-3).
Regarding `Cc1ccc(F)c(-c2cnc(-n3nc([S+](C)[O-])c4ccc(C(=O)N5CCOCC5)cc43)nc2)c1` (single isomer, unassigned) [Compound No. 65, (1-(5-(2-Fluoro-5-methylphenyl)pyrimidin-2-yl)-3-(methylsulfinyl)-1H-indazol-6-yl)(morpholino)methanone], the inhibition at 10 µM was determined as 100%. As to `Cc1ccc(F)c(-c2cnc(-n3nc([S+](C)[O-])c4ccc(C(=O)N5CCOCC5)cc43)nc2)c1` (centres unmarked) [Compound No. 32, (1-(5-(2-Fluoro-5-methylphenyl)pyrimidin-2-yl)-3-(methylsulfinyl)-1H-indazol-6-yl)(morpholino)methanone], the inhibition at 10 µM was found to be 96%. `Cc1ccc(F)c(-c2cnc(-n3nc(S(C)(=O)=O)c4ccc(C(=O)N5CCOCC5)cc43)nc2)c1` [Compound No. 33, (1-(5-(2-Fluoro-5-methylphenyl)pyrimidin-2-yl)-3-(methylsulfonyl)-1H-indazol-6-yl)(morpholino)methanone]: the inhibition at 10 µM came out at 102%. On to `Cc1ccc(F)c(-c2cnc(-n3nc(C(C)O)c4ccc(C(=O)N5CCOCC5)cc43)nc2)c1` (centres unmarked) [Compound No. 34, (1-(5-(2-Fluoro-5-methylphenyl)pyrimidin-2-yl)-3-(1-hydroxyethyl)-1H-indazol-6-yl)(morpholino)methanone], for which the inhibition at 10 µM amounted to 107%.

Regarding `Cc1ccc(F)c(-c2cnc(-n3nc(C(C)O)c4ccc(C(=O)N(C)CCO)cc43)nc2)c1` (centres unmarked) [Compound No. 66, 1-(5-(2-Fluoro-5-methylphenyl)pyrimidin-2-yl)-3-(1-hydroxyethyl)-N-(2-hydroxyethyl)-N-methyl-1H-indazole-6-carboxamide], the inhibition at 10 µM came out at 105%. Turning to `Cc1ccc(F)c(-c2cnc(-n3nc(C(C)O)c4ccc(C(=O)N(C)CC(N)=O)cc43)nc2)c1` (centres unmarked) [Compound No. 67, N-(2-Amino-2-oxoethyl)-1-(5-(2-fluoro-5-methylphenyl)pyrimidin-2-yl)-3-(1-hydroxyethyl)-N-methyl-1H-indazole-6-carboxamide], the inhibition at 10 µM is 90%. As to `CCc1ccc(F)c(-c2cnc(-n3nc(C(C)O)c4ccc(C(=O)N(C)CC(N)=O)cc43)nc2)c1` (centres unmarked) [Compound No. 68, N-(2-Amino-2-oxoethyl)-1-(5-(5-ethyl-2-fluorophenyl)pyrimidin-2-yl)-3-(1-hydroxyethyl)-N-methyl-1H-indazole-6-carboxamide], the inhibition at 10 µM amounted to 106%.

Regarding `CCc1ccc(F)c(-c2cnc(-n3nc(C(C)O)c4ccc(C(=O)N5CCOCC5)cc43)nc2)c1` (centres unmarked) [Compound No. 69, (1-(5-(5-Ethyl-2-fluorophenyl)pyrimidin-2-yl)-3-(1-hydroxyethyl)-1H-indazol-6-yl)(morpholino)methanone], the inhibition at 10 µM worked out at 77%. With `Cc1ccnc(-c2cnc(-n3nc(C(C)O)c4ccc(C(=O)N5CCOCC5)cc43)nc2)c1` (centres unmarked) [Compound No. 70], the inhibition at 10 µM came to 105%. For `COc1ccnc(-c2cnc(-n3nc(C(C)O)c4ccc(C(=O)N5CCOCC5)cc43)nc2)c1` (centres unmarked) [Compound No. 71, (3-(1-Hydroxyethyl)-1-(5-(4-methoxypyridin-2-yl)pyrimidin-2-yl)-1H-indazol-6-yl)(morpholino)methanone], the inhibition at 10 µM was determined as 108%. Turning to `CC(O)c1nn(-c2ncc(-c3cc(C4CC4)ccn3)cn2)c2cc(C(=O)N3CCOCC3)ccc12` (centres unmarked) [Compound No. 73, (1-(5-(4-Cyclopropylpyridin-2-yl)pyrimidin-2-yl)-3-(1-hydroxyethyl)-1H-indazol-6-yl)(morpholino)methanone], the inhibition at 10 µM was found to be 105%. Take `CCOc1ccc(F)c(-c2cnc(-n3nc(C(C)O)c4ccc(C(=O)N5CCOCC5)cc43)nc2)c1` (centres unmarked) [Compound No. 74, (1-(5-(5-Ethoxy-2-fluorophenyl)pyrimidin-2-yl)-3-(1-hydroxyethyl)-1H-indazol-6-yl)(morpholino)methanone]: the inhibition at 10 µM was determined as 102%.

Regarding `CC(O)c1nn(-c2ncc(-c3cccc(C4CC4)c3)cn2)c2cc(C(=O)N3CCOCC3)ccc12` (centres unmarked) [Compound No. 76, (1-(5-(3-Cyclopropylphenyl)pyrimidin-2-yl)-3-(1-hydroxyethyl)-1H-indazol-6-yl)(morpholino)methanone], the inhibition at 10 µM amounted to 102%.

Tested on in another series: not given
Experiment: not given
Details: not given
On to `O=C(c1ccc2c(C3CC3)nn(-c3ncc(-c4ccccc4)cn3)c2c1)N1CCOCC1` [Compound No. 14, (3-Cyclopropyl-1-(5-phenylpyrimidin-2-yl)-1H-indazol-6-yl)(morpholino)-methanone], for which the melting point was 218 to 222 °C.

The record behind these values is patent publication US9546158B2, “2,5-substituted pyrimidines” (Grünenthal GmbH, priority 2014, dated 2017).
